In US6268533A, “Formoterol process” (Sepracor Inc., priority 2000, dated 2001):
Where a name gives a salt, the structure may show the parent alone.

Legend:
[1] = moisture sorption of salts, water content by Karl Fischer titration; assay type: physicochemical; details: for water content (moisture sorption): room temperature; for moisture sorption compared with other salts or forms (in words): comparison of salts/polymorphs of R,R-formoterol
Protocol: Water absorption is a major problem in formulating a medicament for therapeutic use, and therefore a salt that has minimal water absorption offers significant advantages. In a series of experiments various salts of R,R-formoterol were prepared.
The salts were exposed to varying levels of humidity at room temperature for 1 to 28 days, and the samples were analyzed for water content by Karl Fischer titration. The values are given in % w/w.

[2] = tested on: β-adrenoceptors; details: four isomers, in vitro; cited from earlier work
[3] = total impurities of crystal forms after heating; assay type: physicochemical; details: for decomposition (total impurities study): 175° C.
Source text: The two crystal forms of (R,R)-formoterol tartrate were also studied by measuring the total impurities in the material from each of the experiments in Table 6.

[4] = thermal stability of crystal forms, loss on drying by TGA; assay type: physicochemical; details: for % LOD by TGA: held 15 min
Protocol: In each experiment, the polymorph was warmed from 30° C. to the designated temperature at 10° C./min and held at the designated temperature for 15 minutes. The loss on drying (LOD) was measured, and the appearance of the material was noted.

[5] = appearance of sample after TGA; assay type: physicochemical
Protocol: In each experiment, the polymorph was warmed from 30° C. to the designated temperature at 10° C./min and held at the designated temperature for 15 minutes. The loss on drying (LOD) was measured, and the appearance of the material was noted. […] The differences in appearance of each crystal form at the designated temperatures were consistent with the changes in LODs.

[6] = tested on: guinea pig trachea; details: four isomers compared; cited from earlier work
[7] = tested on: β2 -selective adrenoceptor; details: inhaled; background statement; cited from earlier work
[8] = stability of formoterol salts in the presence of lactose and water; assay type: physicochemical
Source text: Alternatively, if lactose is to be used, as described below, the dry powder must be packaged in such a manner as to exclude moisture.

[9] = 85% RH (printed RE for the fumarate)

## COc1ccc(C[C@@H](C)NC[C@H](O)c2ccc(O)c(NC=O)c2)cc1 [(R,R)-Formoterol-SO4]
[1]; 11% relative humidity, day 1
  water content (moisture sorption): 1.2251 % w/w
[1]; 11% relative humidity, day 3
  water content (moisture sorption): 1.3892 % w/w
[1]; 11% relative humidity, day 8
  water content (moisture sorption): 0.9574 % w/w
[1]; 11% relative humidity, day 14
  water content (moisture sorption): 1.209 % w/w
[1]; 11% relative humidity, day 28
  water content (moisture sorption): 0.7866 % w/w
[1]; 43% relative humidity
  water absorbed: more than 3 % by weight
[1]; 43% relative humidity, day 1
  water content (moisture sorption): 2.9647 % w/w
[1]; 43% relative humidity, day 3
  water content (moisture sorption): 3.4998 % w/w
[1]; 43% relative humidity, day 8
  water content (moisture sorption): 3.4048 % w/w
[1]; 43% relative humidity, day 14
  water content (moisture sorption): 2.2985 % w/w
[1]; 43% relative humidity, day 28
  water content (moisture sorption): 3.1595 % w/w

## COc1ccc(C[C@H](C)NC[C@@H](O)c2ccc(O)c(NC=O)c2)cc1 [(S,S)]
[2]
  order of potency: (R,R)>>(R,S)=(S,R)>(S,S)

## COc1ccc(C[C@@H](C)NC[C@H](O)c2ccc(O)c(NC=O)c2)cc1 [(R,R)-Formoterol-HCl]
[1]; 11% relative humidity, day 1
  water content (moisture sorption): 0.5735 % w/w
[1]; 11% relative humidity, day 3
  water content (moisture sorption): 0.553 % w/w
[1]; 11% relative humidity, day 8
  water content (moisture sorption): 0.3656 % w/w
[1]; 11% relative humidity, day 14
  water content (moisture sorption): 0.4385 % w/w
[1]; 11% relative humidity, day 28
  water content (moisture sorption): 0.2644 % w/w
[1]; 43% relative humidity, day 1
  water content (moisture sorption): 0.8502 % w/w
[1]; 43% relative humidity, day 3
  water content (moisture sorption): 1.1636 % w/w
[1]; 43% relative humidity, day 8
  water content (moisture sorption): 0.8781 % w/w
[1]; 43% relative humidity, day 14
  water content (moisture sorption): 0.9802 % w/w
[1]; 43% relative humidity, day 28
  water content (moisture sorption): 0.8133 % w/w
[1]; 75% RH
  water absorbed: 1.3-1.4%
[1]; 75% relative humidity, day 1
  water content (moisture sorption): 1.5335 % w/w
[1]; 75% relative humidity, day 3
  water content (moisture sorption): 1.3288 % w/w
[1]; 75% relative humidity, day 8
  water content (moisture sorption): 1.4931 % w/w
[1]; 75% relative humidity, day 14
  water content (moisture sorption): 1.4585 % w/w
[1]; 75% relative humidity, day 28
  water content (moisture sorption): 1.221 % w/w
[1]; 89% relative humidity, day 1
  water content (moisture sorption): 1.4573 % w/w
[1]; 89% relative humidity, day 3
  water content (moisture sorption): 2.419 % w/w
[1]; 89% relative humidity, day 8
  water content (moisture sorption): 1.6487 % w/w
[1]; 89% relative humidity, day 14
  water content (moisture sorption): 1.5739 % w/w
[1]; 89% relative humidity, day 28
  water content (moisture sorption): 1.1139 % w/w
[1]; listed as hydrochloride
  moisture sorption compared with other salts or forms (in words): somewhat better at 43% RE

## COc1ccc(C[C@@H](C)NC[C@H](O)c2ccc(O)c(NC=O)c2)cc1 [P1]
[1]; 85% RH for 11 days
  water absorbed: less than 0.1%
[1]
  moisture sorption compared with other salts or forms (in words): equivalent in moisture sorption
[3]
  decomposition (total impurities study): nearly completely decomposed
[4]; 75° C.
  % LOD by TGA: 0.092%
[4]; 100° C.
  % LOD by TGA: 0.065%
[4]; 125° C.
  % LOD by TGA: 0.230%
[4]; 150° C.
  % LOD by TGA: 0.390%
[4]; 175° C.
  LOD in words: significant LODs, the result of decomposition
  % LOD by TGA: 10.805%
[5]; 75° C.
  appearance of sample after TGA: white
[5]; 100° C.
  appearance of sample after TGA: white
[5]; 125° C.
  appearance of sample after TGA: white
[5]; 150° C.
  appearance of sample after TGA: off-white
[5]; 175° C.
  appearance of sample after TGA: brown

## COc1ccc(C[C@@H](C)NC[C@H](O)c2ccc(O)c(NC=O)c2)cc1 [(R,R)-isomer]
[2]
  order of potency: (R,R)>>(R,S)=(S,R)>(S,S)
[6]
  relaxing activity, rank of potency: most potent

## COc1ccc(C[C@@H](C)NC[C@H](O)c2ccc(O)c(NC=O)c2)cc1 [P2]
[1]; 85% RH for 11 days
  water absorbed: less than 0.1%
[1]
  moisture sorption compared with other salts or forms (in words): equivalent in moisture sorption
[3]; 100° C. and higher
  total impurities compared with P1: higher levels of total impurities
[3]
  decomposition (total impurities study): nearly completely decomposed
[4]; 75° C.
  % LOD by TGA: 0.020%
[4]; 100° C.
  % LOD by TGA: 0.045%
[4]; 125° C.
  % LOD by TGA: 0.305%
[4]; 150° C.
  % LOD by TGA: 1.230%
[4]; 175° C.
  LOD in words: significant LODs, the result of decomposition
  % LOD by TGA: 12.990%
[5]; 75° C.
  appearance of sample after TGA: white
[5]; 100° C.
  appearance of sample after TGA: white
[5]; 125° C.
  appearance of sample after TGA: off-white
[5]; 150° C.
  appearance of sample after TGA: tan
[5]; 175° C.
  appearance of sample after TGA: brown

## COc1ccc(C[C@H](C)NC[C@H](O)c2ccc(O)c(NC=O)c2)cc1 [(R,S), reference compound]
[2]
  order of potency: (R,R)>>(R,S)=(S,R)>(S,S)

## COc1ccc(C[C@@H](C)NC[C@@H](O)c2ccc(O)c(NC=O)c2)cc1 [(S,R), reference compound]
[2]
  order of potency: (R,R)>>(R,S)=(S,R)>(S,S)

## COc1ccc(C[C@@H](C)NC[C@H](O)c2ccc(O)c(NC=O)c2)cc1 (relative stereo) [Formoterol, (+/-) N-[2-hydroxy-5-[1-hydroxy-2[[2-(p-methoxyphenyl)-2-propyl]amino]ethyl]phenyl]-formamide]
[7]
  bronchodilating effect: long lasting bronchodilating effect

## COc1ccc(C[C@@H](C)NC[C@H](O)c2ccc(O)c(NC=O)c2)cc1 [D-tartrate]
[1]; [9]
  water absorbed: 0.4-0.5%
[1]
  moisture sorption compared with other salts or forms (in words): somewhat better than the hydrochloride

## COc1ccc(C[C@@H](C)NC[C@H](O)c2ccc(O)c(NC=O)c2)cc1 (relative stereo) [racemic (R,R/S,S) formoterol hemifumarate hydrate]
[8]
  incompatibility with lactose on encountering moisture: not observed

## COc1ccc(C[C@@H](C)NC[C@H](O)c2ccc(O)c(NC=O)c2)cc1 [R,R-formoterol L-tartrate]
[1]
  hygroscopicity: non-hygroscopic
[1]; 11% relative humidity, day 1
  water content (moisture sorption): 0.0956 % w/w
[1]; 11% relative humidity, day 3
  water content (moisture sorption): 0.1062 % w/w
[1]; 11% relative humidity, day 8
  water content (moisture sorption): 0.0842 % w/w
[1]; 11% relative humidity, day 14
  water content (moisture sorption): 0.1377 % w/w
[1]; 11% relative humidity, day 28
  water content (moisture sorption): 0.0871 % w/w
[1]; 43% relative humidity, day 1
  water content (moisture sorption): 0.1091 % w/w
[1]; 43% relative humidity, day 3
  water content (moisture sorption): 0.1406 % w/w
[1]; 43% relative humidity, day 8
  water content (moisture sorption): 0.0922 % w/w
[1]; 43% relative humidity, day 14
  water content (moisture sorption): 0.104 % w/w
[1]; 43% relative humidity, day 28
  water content (moisture sorption): 0.0705 % w/w
[1]; 75% relative humidity, day 1
  water content (moisture sorption): 0.0895 % w/w
[1]; 75% relative humidity, day 3
  water content (moisture sorption): 0.1367 % w/w
[1]; 75% relative humidity, day 8
  water content (moisture sorption): 0.0732 % w/w
[1]; 75% relative humidity, day 14
  water content (moisture sorption): 0.1146 % w/w
[1]; 75% relative humidity, day 28
  water content (moisture sorption): 0.0691 % w/w
[1]; 89% RH
  water absorbed: 0.10 to 0.13%
[1]; 89% relative humidity, day 1
  water content (moisture sorption): 0.1144 % w/w
[1]; 89% relative humidity, day 3
  water content (moisture sorption): 0.1379 % w/w
[1]; 89% relative humidity, day 8
  water content (moisture sorption): 0.1104 % w/w
[1]; 89% relative humidity, day 14
  water content (moisture sorption): 0.1097 % w/w
[1]; 89% relative humidity, day 28
  water content (moisture sorption): 0.1122 % w/w
[1]; 93% relative humidity, day 1
  water content (moisture sorption): 0.1346 % w/w
[1]; 93% relative humidity, day 3
  water content (moisture sorption): 0.2077 % w/w
[1]; 93% relative humidity, day 8
  water content (moisture sorption): 0.1076 % w/w
[1]; 93% relative humidity, day 14
  water content (moisture sorption): 0.2972 % w/w
[1]; 93% relative humidity, day 28
  water content (moisture sorption): 0.1765 % w/w
[1]; listed as L-tartrate of R,R-formoterol
  moisture sorption compared with other salts or forms (in words): superior to all of the salts tested

## COc1ccc(C[C@@H](C)NC[C@H](O)c2ccc(O)c(NC=O)c2)cc1 [fumarate]
[1]; [9]
  water absorbed: 6%
[1]
  moisture sorption compared with other salts or forms (in words): somewhat better at 43% RE
